Reference: patent US10538508B2, “Substituted amino triazoles useful as human chitinase inhibitors” (OncoArendi Therapeutics S.A., priority 2015, dated 2020)

Columns and labels:
recombinant human CHIT1 = recombinant human CHIT1 (Homo sapiens (Human), UniProt Q13231); experiment: Human CHIT1 Activity Assay; assay type: biochemical; conditions: recombinant human CHIT1, citrate buffer pH 5.2, 37° C., 60 minutes; read-out: Activity on hCHIT1, IC50
recombinant human AMCase = recombinant human AMCase (Homo sapiens (Human), UniProt Q9BZP6); experiment: Human AMCase Activity Assay; assay type: biochemical; conditions: citrate buffer pH 5.2, 37° C., 60 minutes, read-out: Activity on hAMCase, IC50
recombinant human AMCase, sequence (Q9BZP6 22-476): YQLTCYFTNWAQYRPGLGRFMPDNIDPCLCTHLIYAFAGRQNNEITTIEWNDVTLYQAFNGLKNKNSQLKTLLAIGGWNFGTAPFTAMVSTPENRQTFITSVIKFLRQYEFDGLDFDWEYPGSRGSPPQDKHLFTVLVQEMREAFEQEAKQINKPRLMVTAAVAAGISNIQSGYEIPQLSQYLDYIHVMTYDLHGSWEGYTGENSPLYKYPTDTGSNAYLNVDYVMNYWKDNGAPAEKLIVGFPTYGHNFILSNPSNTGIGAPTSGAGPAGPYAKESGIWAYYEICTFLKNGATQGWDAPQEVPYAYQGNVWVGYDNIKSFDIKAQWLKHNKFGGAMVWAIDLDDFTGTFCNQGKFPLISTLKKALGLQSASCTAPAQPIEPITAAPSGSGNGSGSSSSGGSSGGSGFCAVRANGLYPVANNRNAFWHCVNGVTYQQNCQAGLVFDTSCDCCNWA

recombinant human CHIT1, sequence (Q13231 22-466): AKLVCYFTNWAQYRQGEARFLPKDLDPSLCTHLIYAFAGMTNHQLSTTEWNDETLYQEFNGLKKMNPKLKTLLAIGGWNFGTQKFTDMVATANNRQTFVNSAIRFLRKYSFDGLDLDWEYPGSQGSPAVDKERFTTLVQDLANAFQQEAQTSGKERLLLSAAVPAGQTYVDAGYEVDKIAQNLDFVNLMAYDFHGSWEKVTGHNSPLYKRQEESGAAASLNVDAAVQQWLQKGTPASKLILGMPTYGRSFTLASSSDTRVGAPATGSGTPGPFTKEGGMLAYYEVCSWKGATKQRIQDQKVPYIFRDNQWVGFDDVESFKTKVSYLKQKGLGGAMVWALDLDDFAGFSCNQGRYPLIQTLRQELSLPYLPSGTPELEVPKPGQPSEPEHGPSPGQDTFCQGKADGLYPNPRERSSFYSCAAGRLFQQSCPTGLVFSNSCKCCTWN

SMILES: COC(C)(C)[C@H]1CN(C2CCN(c3nnc(N)[nH]3)CC2)[C@@H](Cc2ccc(Cl)cc2)CO1 [Example 14, 5-(4-((2R,5S)-5-(4-chlorobenzyl)-2-(2-methoxypropan-2-yl)morpholino)piperidin-1-yl)-4H-1,2,4-triazol-3-amine]
- IC50 (recombinant human CHIT1): < 0.1 µM

SMILES: CN1C[C@H](Cc2ccc(Cl)cc2)N(C2CCN(c3nnc(N)[nH]3)CC2)C[C@@H]1Cc1ccc(Cl)cc1 [Example 31, 5-(4-((2S,5S)-2,5-bis(4-chlorobenzyl)-4-methylpiperazin-1-yl)piperidin-1-yl)-4H-1,2,4-triazol-3-amine]
- IC50 (recombinant human AMCase): < 0.1 µM

SMILES: CN1C[C@H](Cc2ccc(Cl)cc2)N(C2CCN(c3nnc(N)[nH]3)CC2)C[C@@H]1CC1CCCCC1 [Example 32, 5-(4-((2 S, 5S)-2-(4-chlorobenzyl)-5-(cyclohexylmethyl)-4-methylpiperazin-1-yl)piperidin-1-yl)-4H-1,2,4-triazol-3-amine]
- IC50 (recombinant human AMCase): < 0.1 µM

SMILES: CC(C)C[C@H]1CN(C2CCN(c3nnc(N)[nH]3)CC2)[C@@H](Cc2ccc(Cl)cc2)CN1C [Example 33, 5-(4-((2S,5S)-2-(4-chlorobenzyl)-5-isobutyl-4-methylpiperazin-1-yl)piperidin-1-yl)-4H-1,2,4-triazol-3-amine]
- IC50 (recombinant human AMCase): < 0.1 µM

SMILES: C[C@H]1CN(C2CCN(c3nnc(N)[nH]3)CC2)[C@@H](Cc2ccc(Cl)cc2)CN1S(C)(=O)=O [Example 37, 5-(4-((2S,5S)-2-(4-chlorobenzyl)-5-methyl-4-(methylsulfonyl)piperazin-1-yl)piperidin-1-yl)-4H-1,2,4-triazol-3-amine]
- IC50 (recombinant human CHIT1): 10 to 100 µM

SMILES: COC(=O)N1C[C@H](Cc2ccc(Cl)cc2)N(C2CCN(c3nnc(N)[nH]3)CC2)C[C@@H]1C [Example 39, methyl (2S,5S)-4-(1-(5-amino-4H-1,2,4-triazol-3-yl)piperidin-4-yl)-5-(4-chlorobenzyl)-2-methylpiperazine-1-carboxylate]
- IC50 (recombinant human CHIT1): 10 to 100 µM

SMILES: COC(=O)CN1C[C@H](Cc2ccc(Cl)cc2)N(C2CCN(c3nnc(N)[nH]3)CC2)C[C@@H]1C [Example 40, methyl 2-((2S,5S)-4-(1-(5-amino-4H-1,2,4-triazol-3-yl)piperidin-4-yl)-5-(4-chlorobenzyl)-2-methylpiperazin-1-yl)acetate]
- IC50 (recombinant human CHIT1): 0.1 to 1 µM

SMILES: C[C@H]1CN(C2CCN(c3nnc(N)[nH]3)CC2)[C@@H](Cc2ccc(Cl)cc2)C(C)(C)O1 [Example 53, 5-(4-((3S,6S)-3-(4-chlorobenzyl)-2,2,6-trimethylmorpholino)piperidin-1-yl)-4H-1,2,4-triazol-3-amine]
- IC50 (recombinant human CHIT1): 10 to 100 µM
